What was measured:
[1] = molecular target: T1, SMARCA2-HiBiT HeLa cells (protein which is expressed from the SMARCA2 gene) (Homo sapiens, UniProt P51531); assay: SMARCA2 degradation assay (HiBiT-fusion HeLa cell line, 24 h, luminescence); assay type: cell-based
T1 construct: protein which is expressed from the SMARCA2 and SMARCA4 genes; host or cells: HeLa (SMARCA2-HiBiT engineered line)
Summary of the method: (§1)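 In this 24-hour cellular degradation readout, HiBiT-tagged HeLa lines received compound at up to typically 10 μM down to 300 pM in 10 points. After lysis with LgBiT and substrate, luminescence signals were used to build dose-response curves for DC50.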

[2] = molecular target: T2, SMARCA4-HiBiT HeLa cells (protein which is expressed from the SMARCA4 gene) (Homo sapiens, UniProt P51532); assay: SMARCA4 degradation assay (HiBiT-fusion HeLa cell line, 24 h, luminescence); assay type: cell-based
T2 construct: protein which is expressed from the SMARCA2 and SMARCA4 genes; host or cells: HeLa (SMARCA4-HiBiT engineered line)
T2 sequence (P51532 whole entry, the tested form may be a part): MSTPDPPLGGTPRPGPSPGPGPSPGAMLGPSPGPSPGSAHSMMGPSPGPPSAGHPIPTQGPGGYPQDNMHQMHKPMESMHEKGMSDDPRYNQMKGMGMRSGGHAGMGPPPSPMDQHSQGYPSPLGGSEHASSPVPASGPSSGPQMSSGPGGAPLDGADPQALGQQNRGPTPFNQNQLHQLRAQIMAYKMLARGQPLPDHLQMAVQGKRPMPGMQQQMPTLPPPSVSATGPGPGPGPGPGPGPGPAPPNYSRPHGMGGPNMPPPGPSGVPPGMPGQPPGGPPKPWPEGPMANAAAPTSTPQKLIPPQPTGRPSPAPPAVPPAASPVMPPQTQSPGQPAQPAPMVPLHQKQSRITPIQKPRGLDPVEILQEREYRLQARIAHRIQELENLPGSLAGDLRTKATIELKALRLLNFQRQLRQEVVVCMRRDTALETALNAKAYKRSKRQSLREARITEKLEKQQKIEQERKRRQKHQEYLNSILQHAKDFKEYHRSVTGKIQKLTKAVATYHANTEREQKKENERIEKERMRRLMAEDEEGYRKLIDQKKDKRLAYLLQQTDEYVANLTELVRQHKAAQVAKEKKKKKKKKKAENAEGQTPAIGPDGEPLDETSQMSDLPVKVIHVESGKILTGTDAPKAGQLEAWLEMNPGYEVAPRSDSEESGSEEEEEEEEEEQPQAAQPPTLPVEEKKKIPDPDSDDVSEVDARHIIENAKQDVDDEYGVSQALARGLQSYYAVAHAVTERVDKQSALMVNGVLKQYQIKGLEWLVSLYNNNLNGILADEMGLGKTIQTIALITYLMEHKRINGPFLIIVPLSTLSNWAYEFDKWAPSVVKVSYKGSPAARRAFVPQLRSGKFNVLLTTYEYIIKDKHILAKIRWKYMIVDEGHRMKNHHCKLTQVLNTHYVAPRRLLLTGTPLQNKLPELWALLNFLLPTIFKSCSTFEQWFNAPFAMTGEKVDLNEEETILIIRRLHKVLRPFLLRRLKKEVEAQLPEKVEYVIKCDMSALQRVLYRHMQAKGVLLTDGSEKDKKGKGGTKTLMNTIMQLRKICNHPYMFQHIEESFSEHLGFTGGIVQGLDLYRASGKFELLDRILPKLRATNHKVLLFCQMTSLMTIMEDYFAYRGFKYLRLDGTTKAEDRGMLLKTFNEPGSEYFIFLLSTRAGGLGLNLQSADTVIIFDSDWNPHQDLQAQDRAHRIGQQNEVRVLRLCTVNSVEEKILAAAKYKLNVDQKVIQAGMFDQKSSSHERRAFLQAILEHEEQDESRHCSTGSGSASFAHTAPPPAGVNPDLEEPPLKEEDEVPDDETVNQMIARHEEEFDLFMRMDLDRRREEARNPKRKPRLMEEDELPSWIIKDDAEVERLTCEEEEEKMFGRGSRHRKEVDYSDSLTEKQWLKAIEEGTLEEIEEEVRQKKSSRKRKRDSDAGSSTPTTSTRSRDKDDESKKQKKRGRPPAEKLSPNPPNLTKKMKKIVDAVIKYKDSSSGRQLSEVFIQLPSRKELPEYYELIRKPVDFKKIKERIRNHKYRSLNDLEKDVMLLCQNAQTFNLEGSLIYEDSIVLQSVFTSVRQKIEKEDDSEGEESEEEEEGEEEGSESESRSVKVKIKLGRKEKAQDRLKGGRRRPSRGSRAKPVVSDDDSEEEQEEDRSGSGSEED
Summary of the method: as §1

T1 sequence (P51531 whole entry, the tested form may be a part): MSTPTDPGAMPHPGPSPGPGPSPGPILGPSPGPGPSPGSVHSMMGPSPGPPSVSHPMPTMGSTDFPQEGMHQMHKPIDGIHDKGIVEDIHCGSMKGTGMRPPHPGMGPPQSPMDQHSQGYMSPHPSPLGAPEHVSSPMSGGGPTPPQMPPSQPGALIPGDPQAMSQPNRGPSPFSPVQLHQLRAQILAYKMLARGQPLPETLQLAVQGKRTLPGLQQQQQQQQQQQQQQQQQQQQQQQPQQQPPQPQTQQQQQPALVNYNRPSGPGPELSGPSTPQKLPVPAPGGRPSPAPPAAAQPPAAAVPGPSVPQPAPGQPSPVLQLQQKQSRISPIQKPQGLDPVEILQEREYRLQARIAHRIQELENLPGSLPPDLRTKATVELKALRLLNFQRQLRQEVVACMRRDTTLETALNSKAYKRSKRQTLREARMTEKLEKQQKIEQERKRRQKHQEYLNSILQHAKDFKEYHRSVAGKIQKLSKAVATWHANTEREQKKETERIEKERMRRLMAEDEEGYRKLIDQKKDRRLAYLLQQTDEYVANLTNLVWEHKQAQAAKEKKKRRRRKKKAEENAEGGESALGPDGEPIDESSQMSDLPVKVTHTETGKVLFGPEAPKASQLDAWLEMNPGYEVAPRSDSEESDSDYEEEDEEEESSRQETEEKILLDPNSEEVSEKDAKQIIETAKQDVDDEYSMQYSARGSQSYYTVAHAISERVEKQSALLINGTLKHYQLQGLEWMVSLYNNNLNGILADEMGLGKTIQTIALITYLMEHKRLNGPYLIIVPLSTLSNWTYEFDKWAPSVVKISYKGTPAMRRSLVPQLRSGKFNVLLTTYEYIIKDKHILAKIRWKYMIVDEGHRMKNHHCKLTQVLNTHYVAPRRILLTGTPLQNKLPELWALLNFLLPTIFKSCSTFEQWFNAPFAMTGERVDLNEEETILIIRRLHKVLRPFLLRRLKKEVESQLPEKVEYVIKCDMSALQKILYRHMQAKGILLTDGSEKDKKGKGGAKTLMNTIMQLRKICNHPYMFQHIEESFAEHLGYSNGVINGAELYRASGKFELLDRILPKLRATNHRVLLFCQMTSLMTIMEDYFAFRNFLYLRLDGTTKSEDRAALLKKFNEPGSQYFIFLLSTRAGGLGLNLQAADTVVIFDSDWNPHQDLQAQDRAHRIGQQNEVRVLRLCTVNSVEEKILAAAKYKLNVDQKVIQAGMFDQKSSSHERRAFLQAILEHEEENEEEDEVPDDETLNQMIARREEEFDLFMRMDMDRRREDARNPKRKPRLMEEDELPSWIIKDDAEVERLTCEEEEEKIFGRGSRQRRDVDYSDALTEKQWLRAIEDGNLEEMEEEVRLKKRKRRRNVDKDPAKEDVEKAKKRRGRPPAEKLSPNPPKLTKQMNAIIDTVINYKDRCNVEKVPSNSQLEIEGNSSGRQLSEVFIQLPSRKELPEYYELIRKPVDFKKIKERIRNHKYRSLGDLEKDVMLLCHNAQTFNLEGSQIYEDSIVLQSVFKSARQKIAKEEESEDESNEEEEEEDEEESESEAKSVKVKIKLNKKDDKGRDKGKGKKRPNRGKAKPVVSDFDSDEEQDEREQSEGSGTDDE

Row | DC50 [1] [nM] | SMARCA2 % Degradation @ 1 μM ([1]; @ 1 μM) | DC50 [2] [nM] | inhibition at 1 µM ([2]; @ 1 μM) [%] | SMARCA2 % Degradation @ 1 μM ([1]; 1 μM) | inhibition at 1 µM ([2]; 1 μM) [%] | Compound
1 | 50 to 500 | ++ (++=30-70%) | 50 to 500 | < 30 | – | – | C[C@H]1CN(c2ccnc(C#CCn3cncn3)n2)CCN1c1cc(-c2ccccc2O)nnc1N [Compound P-330, 0-{5-[(S)-2-methyl-4-{2-[3-(1H-1,2,4-triazol-1-yl)-1-propynyl]-4-pyrimidinyl}-1-piperazinyl]-6-amino-3-pyridazinyl} phenol]
2 | < 50 | ++ (++=30-70%) | 50 to 500 | < 30 | – | – | C[C@@H]1CCN(c2cc(-c3ccccc3O)nnc2N)CCN1c1ccnc(C#CCn2cccn2)n1 [Compound P-332, 0-{5-[(R)-5-methyl-4-{2-[3-(1-pyrazolyl)-1-propynyl]-4-pyrimidinyl}-1,4-diazepan-1-y1]-6-amino-3-pyridazinyl}phenol]
3 | 50 to 500 | +++ (+++=>70%) | 50 to 500 | 30 to 70 | – | – | COC1CCN(CC#Cc2nccc(N3CCCN(c4cc(-c5ccccc5O)nnc4N)CC3)n2)CC1 [Compound P-378, 0-[6-amino-5-(4-{2-[3-(4-methoxy-1-piperidyl)-1-propynyl]-4-pyrimidinyl}-1,4-diazepan-1-yl)-3-pyridazinyl]phenol]
4 | < 50 | ++ (++=30-70%) | < 50 | < 30 | – | – | C[C@@H]1CCN(c2cc(-c3ccccc3O)nnc2N)CCN1c1nc(C#CCN(C)C)ncc1F [Compound P-226, o-{5-[(R)-4-{2-[3-(dimethylamino)-1-propynyl]-5-fluoro-4-pyrimidinyl}-5-mcthyl-1,4-diazcpan-1-yl]-6-amino-3-pyridazinyl}phenol]
5 | 50 to 500 | +++ (+++=>70%) | 50 to 500 | 30 to 70 | – | – | CC[C@@H](C)NCC#Cc1nccc(N2CCCN(c3cc(-c4ccccc4O)nnc3N)CC2)n1 [Compound P-274, 0-{5-[4-(2-{3-[(R)-1-methylpropylamino]-1-propynyl}-4-pyrimidinyl)-1,4-diazepan-1-yl]-6-amino-3-pyridazinyl}phenol]
6 | 50 to 500 | – | 500 to 5000 | – | ++ (++=30-70%) | 30 to 70 | C[C@@H]1CCN(c2cc(-c3ccccc3O)nnc2N)CCN1c1ccnc(C#CC2CCC2)c1 [Compound P-388, 0-(5-{(R)-4-[2-(2-cyclobutylethynyl)-4-pyridyl]-5-methyl-1,4-diazepan-1-yl}-6-amino-3-pyridazinyl)phenol]
7 | 50 to 500 | ++ (++=30-70%) | 50 to 500 | 30 to 70 | – | – | Nc1nnc(-c2ccccc2O)cc1N1CCCN(c2ccnc(C#CCN3CCOCC3)n2)CC1 [Compound P-136, 2-(6-amino-5-(4-(2-(3-morpholinoprop-1-yn-1-yl)pyrimidin-4-yl)-1,4-diazepan-1-yl)pyridazin-3-yl)phenol]

More lines, now with the values behind:

Row | Compound | DC50 [1] [nM] | SMARCA2 % Degradation @ 1 μM ([1]; @ 1 μM) | DC50 [2] [nM] | inhibition at 1 µM ([2]; @ 1 μM) [%] | SMARCA2 % Degradation @ 1 μM ([1]; 1 μM) | inhibition at 1 µM ([2]; 1 μM) [%]
8 | Cc1c(C(=O)NCC#Cc2nccc(N3CCN(c4cc(-c5ccccc5O)nnc4N)CC[C@H]3C)n2)nn(C)c1C [Compound P-239, N-[3-(4-{ (R)-4-[3-amino-6-(o-hydroxyphenyl)-4-pyridazinyl]-7-methyl-1,4-diazepan-1-y1}-2-pyrimidinyl)-2-propynyl]-1-methyl-4,5-dimethyl-3-pyrazolecarboxamide] | 50 to 500 | ++ (++=30-70%) | 50 to 500 | 30 to 70 | – | –
9 | Nc1nnc(-c2ccccc2O)cc1N1CCC2(CCN(c3ccnc(C#CCNC(=O)c4cc5ncccn5n4)n3)CC2)C1 [Compound P-34, N-(3-(4-(2-(3-amino-6-(2-hydroxyphenyl)pyridazin-4-yl)-2,8-diazaspiro[4.5]decan-8-yl)pyrimidin-2-yl)prop-2-yn-1-yl)pyrazolo[1,5-a]pyrimidine-2-carboxamide] | 50 to 500 | ++ (++=30-70%) | 50 to 500 | 30 to 70 | – | –
10 | Nc1nnc(-c2ccccc2O)cc1N1CCN(c2ccnc(C#CCNC(=O)c3cccc4ccoc34)n2)CC1 [Compound P-63, N-(3-(4-(4-(3-amino-6-(2-hydroxyphenyl)pyridazin-4-yl)piperazin-1-yl)pyrimidin-2-yl)prop-2-yn-1-yl)benzofuran-7-carboxamide] | 50 to 500 | ++ (++=30-70%) | 50 to 500 | 30 to 70 | – | –
11 | Nc1nnc(-c2ccccc2O)cc1N1CCCN(c2ccnc(C#CCN3CCCC3)n2)CC1 [Compound P-366, 0-[6-amino-5-(4-{2-[3-(1-pyrrolidinyl)-1-propynyl]-4-pyrimidinyl}-1,4-diazepan-1-yl)-3-pyridazinyl]phenol] | 50 to 500 | +++ (+++=>70%) | 50 to 500 | > 70 | – | –
12 | C[C@@H]1CCN(c2cc(-c3ccccc3O)nnc2N)CCN1c1ccnc(C#CCN2[C@H](C)C[C@H]2C)n1 [Compound P-264, o-{5-[(R)-4-(2-{3-[(2R,4R)-2,4-dimethyl-1-azetidinyl]-1-propynyl}-4-pyrimidinyl)-5-methyl-1,4-diazepan-1-yl]-6-amino-3-pyridazinyl}phenol] | < 50 | ++ (++=30-70%) | < 50 | 30 to 70 | – | –
13 | Nc1nnc(-c2ccccc2O)cc1N1CC2CN(c3ccnc(C#CCNC(=O)c4cc5ncccn5n4)n3)CC21 (stereo not shown) [Compound P-45, N-(3-(4-(6-(3-amino-6-(2-hydroxyphenyl)pyridazin-4-yl)-3,6-diazabicyclo[3.2.0]heptan-3-yl)pyrimidin-2-yl)prop-2-yn-1-yl)pyrazolo[1,5-a]pyrimidine-2-carboxamide] | 500 to 5000 | + (+=<30%) | 500 to 5000 | < 30 | – | –
14 | CC1CC(C)N1CC#Cc1cc(N2CCN(c3cc(-c4ccccc4O)nnc3N)CC[C@H]2C)ccn1 (stereo partly drawn) [Compound P-418, 0-{5-[(R)-4-{2-[3-(2,4-dimethyl-1-azetidinyl)-1-propynyl]-4-pyridy1}-5-methyl-1,4-diazepan-1-yl]-6-amino-3-pyridazinyl}phenol] | < 50 | – | < 50 | – | +++ (+++=>70%) | 30 to 70
15 | C[C@H]1CN(c2ccnc(C#CCN3CCCCC3)n2)CCN1c1cc(-c2ccccc2O)nnc1N [Compound P-319, 0-(5-{(S)-2-methyl-4-[2-(3-piperidino-1-propynyl)-4-pyrimidinyl]-1-piperazinyl}-6-amino-3-pyridazinyl)phenol] | < 50 | ++ (++=30-70%) | < 50 | < 30 | – | –
16 | Nc1nnc(-c2ccccc2O)cc1N1CC2CCC(C1)N2c1ccnc(C#CCN2CC3CC2C3)n1 [Compound P-188, o-{6-amino-5-[8-(2-{3-(2-azabicyclo[2.1.1]hex-2-yl)-1-propynyl}-4-pyrimidinyl)-3,8-diazabicyclo[3.2.1]oct-3-yl]-3-pyridazinyl}phenol] | < 50 | +++ (+++=>70%) | < 50 | 30 to 70 | – | –
17 | Nc1nnc(-c2ccccc2O)cc1N1CCN(c2ccnc(C#CCNC(=O)c3cc4ncccn4n3)n2)CC1 [Compound P-93, N-(3-(4-(4-(3-amino-6-(2-hydroxyphenyl)pyridazin-4-yl)piperazin-1-yl)pyrimidin-2-yl)prop-2-yn-1-yl)pyrazolo[1,5-a]pyrimidine-2-carboxamide] | 50 to 500 | ++ (++=30-70%) | < 50 | 30 to 70 | – | –
18 | Cn1nc(C(=O)NCC#Cc2nccc(N3CCN(c4cc(-c5ccccc5O)nnc4N)CC3)n2)cc1C1CC1 [Compound P-6, N-[3-(4-{4-[3-amino-6-(2-hydroxyphenyl)pyridazin-4-yl]piperazin-1-y1}pyrimidin-2-yl)prop-2-yn-1-yl]-5-cyclopropyl-1-methyl-1H-pyrazole-3-carboxamide] | 50 to 500 | ++ (++=30-70%) | < 50 | 30 to 70 | – | –
19 | CCNC(=O)NCC#Cc1nccc(N2CCCN(c3cc(-c4ccccc4O)nnc3N)CC2)n1 [Compound P-326, 0-[6-amino-5-(4-{2-[3-(3-ethylureido)-1-propynyl]-4-pyrimidinyl}-1,4-diazepan-1-yl)-3-pyridazinyl]phenol] | 500 to 5000 | ++ (++=30-70%) | 500 to 5000 | < 30 | – | –
20 | C[C@@H]1CCN(c2cc(-c3ccccc3O)nnc2N)CCN1c1nc(C#CCn2ccnc2)ncc1F [Compound P-247, o-{5-[(R)-4-{5-fluoro-2-[3-(1-imidazolyl)-1-propynyl]-4-pyrimidinyl}-5-methyl-1,4-diazepan-1-yl]-6-amino-3-pyridaziny1}phenol] | 50 to 500 | ++ (++=30-70%) | 50 to 500 | 30 to 70 | – | –
21 | C[C@@H]1CCN(c2cc(-c3ccccc3O)nnc2N)CCN1c1ccc(C#N)c(C#CCN(C)C)n1 [Compound P-423, 6-{(R)-4-[3-amino-6-(0-hydroxyphenyl)-4-pyridaziny1]-7-methyl-1,4-diazepan-1-yl}-2-[3-(dimethylamino)-1-propynyl]nicotinonitrile] | < 50 | – | < 50 | – | ++ (++=30-70%) | 30 to 70
22 | Nc1nnc(-c2ccccc2O)cc1N1CCCN(c2ccnc(C#CCN3CCCCC3)n2)CC1 [Compound P-373, 0-(6-amino-5-{4-[2-(3-piperidino-1-propynyl)-4-pyrimidinyl]-1,4-diazepan-1-yl}-3-pyridazinyl)phenol] | 50 to 500 | +++ (+++=>70%) | 50 to 500 | 30 to 70 | – | –
